Reference: ChEMBL document CHEMBL1201862, “PubChem BioAssay data set” (2004)
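1) Cells in 96-well plates. 2) Compound, 48 h, 5 concentrations. 3) Linear interpolation between surrounding doses. 4) Unreached endpoint = highest concentration. GI50 = concentration required for 50% inhibition of growth.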 Active and inactive are the calls of the source. No stated cut-off is given here; in the data, active = GI50 up to about 1.1 µM and inactive = higher.

Key:
Assay in all cases: inhibition of tumour cell growth, NCI panel, 48 h
MDA-MB-231 = system: MDA-MB-231
SNB-19 = system: SNB-19
RXF 393 = system: RXF 393
DU-145 = system: DU-145
NCI-H23 = system: NCI-H23
MDA-MB-435 = system: MDA-MB-435
HOP-92 = system: HOP-92
HCT-15 = system: HCT-15
Hs-578T = system: Hs-578T
NCI-H522 = system: NCI-H522
SF-295 = system: SF-295
T47D = system: T47D
ACHN = system: ACHN
BT-549 = system: BT-549
MDA-N = system: MDA-N
NCI-H226 = system: NCI-H226
786-0 = system: 786-0

| SMILES | GI50 (MDA-MB-231) | GI50 (SNB-19) | GI50 (RXF 393) | GI50 (DU-145) | GI50 (NCI-H23) | GI50 (MDA-MB-435) | GI50 (HOP-92) | GI50 (HCT-15) [µM] | GI50 (Hs-578T) | GI50 (NCI-H522) | GI50 (SF-295) | GI50 (T47D) | GI50 (ACHN) | GI50 (BT-549) | GI50 (MDA-N) | GI50 (NCI-H226) | GI50 (786-0) |
| --- | --- | --- | --- | --- | --- | --- | --- | --- | --- | --- | --- | --- | --- | --- | --- | --- | --- |
| Oc1ccc(NCn2c(=S)sc3ccccc32)cc1 | > 100 µM (inactive) | > 100 µM (inactive) | > 100 µM (inactive) | > 100 µM (inactive) | > 100 µM (inactive) | > 100 µM (inactive) | 33 µM (inactive) | > 100 | 50 µM (inactive) | 17.7 µM (inactive) | > 100 µM (inactive) | 34.4 µM (inactive) | > 100 µM (inactive) | > 100 µM (inactive) | – | – | – |
| Cc1ccc2oc3c(ccc(=O)n3C)c(=O)c2c1 | > 100 µM (inactive) | > 100 µM (inactive) | > 100 µM (inactive) | > 100 µM (inactive) | > 100 µM (inactive) | > 100 µM (inactive) | > 100 µM (inactive) | > 100 | > 100 µM (inactive) | > 100 µM (inactive) | > 100 µM (inactive) | > 100 µM (inactive) | > 100 µM (inactive) | – | > 100 µM (inactive) | > 100 µM (inactive) | – |
| CC(C)(C)[Si](C)(C)OCC1OC(n2cnc3c(N)ncnc32)CC1OS(C)(=O)=O (stereo unspecified) | 22.1 µM (inactive) | > 100 µM (inactive) | 25.6 µM (inactive) | > 100 µM (inactive) | 51.1 µM (inactive) | > 100 µM (inactive) | 0.506 µM (active) | > 100 | – | – | > 100 µM (inactive) | > 100 µM (inactive) | – | 54 µM (inactive) | > 100 µM (inactive) | > 100 µM (inactive) | – |
| COC(=O)c1ccccc1/N=C(/NC1CCCCCC1)NS(=O)(=O)c1ccc(C)cc1 | 76.9 µM (inactive) | > 100 µM (inactive) | > 100 µM (inactive) | 58.6 µM (inactive) | > 100 µM (inactive) | > 100 µM (inactive) | 89.7 µM (inactive) | > 100 | > 100 µM (inactive) | 77.4 µM (inactive) | 26.4 µM (inactive) | > 100 µM (inactive) | > 100 µM (inactive) | > 100 µM (inactive) | > 100 µM (inactive) | > 100 µM (inactive) | > 100 µM (inactive) |
| COc1cc(/C=C2\N=C(c3ccccc3)N(c3ccc(C(=O)c4ccccc4)cc3N3C(=O)/C(=C/c4cc(OC)c(OC)c(OC)c4)N=C3c3ccccc3)C2=O)cc(OC)c1OC | 16.9 µM (inactive) | 25.6 µM (inactive) | 11.2 µM (inactive) | 14.5 µM (inactive) | 17.1 µM (inactive) | 2.85 µM (inactive) | 47.2 µM (inactive) | 5.62 | 17.9 µM (inactive) | 4.65 µM (inactive) | 11.7 µM (inactive) | 4.93 µM (inactive) | 22.6 µM (inactive) | 14.4 µM (inactive) | 2.73 µM (inactive) | – | 16.8 µM (inactive) |
| CC(C)NC(=O)CN1CCN(C2=C(Cl)C(=O)c3c(O)ccc(O)c3C2=O)CC1 | 1.97 µM (inactive) | 13.6 µM (inactive) | 1.54 µM (inactive) | 2.71 µM (inactive) | 1.03 µM (active) | 1.62 µM (inactive) | 2.24 µM (inactive) | 0.693 | 2.39 µM (inactive) | 1.9 µM (inactive) | 7.1 µM (inactive) | 1.91 µM (inactive) | 2.15 µM (inactive) | 1.49 µM (inactive) | 1.49 µM (inactive) | 21.5 µM (inactive) | 2.56 µM (inactive) |
| CC1=C(C)[C@@]2(C)O[C@@]2(C)O[C@@]2(C)O[C@@]12C | > 100 µM (inactive) | > 100 µM (inactive) | – | > 100 µM (inactive) | > 100 µM (inactive) | > 100 µM (inactive) | > 100 µM (inactive) | > 100 | > 100 µM (inactive) | > 100 µM (inactive) | > 100 µM (inactive) | > 100 µM (inactive) | > 100 µM (inactive) | > 100 µM (inactive) | > 100 µM (inactive) | > 100 µM (inactive) | – |
| CN1c2ccccc2C(=O)NC12CCN(CCCC(=O)c1ccc(F)cc1)CC2 | 40.9 µM (inactive) | – | 62.8 µM (inactive) | > 100 µM (inactive) | > 100 µM (inactive) | 56.8 µM (inactive) | 62.1 µM (inactive) | > 100 | > 100 µM (inactive) | 26.7 µM (inactive) | 73.5 µM (inactive) | 29 µM (inactive) | > 100 µM (inactive) | 58.3 µM (inactive) | 88.7 µM (inactive) | > 100 µM (inactive) | 74.3 µM (inactive) |
| Cc1cc(S(=O)(=O)Nc2nc(Nc3ccccc3)n[nH]2)c(SSc2cc(Cl)c(C)cc2S(=O)(=O)Nc2nc(Nc3ccccc3)n[nH]2)cc1Cl | 32.2 µM (inactive) | 94.8 µM (inactive) | > 10 µM (inactive) | > 100 µM (inactive) | > 100 µM (inactive) | > 100 µM (inactive) | – | > 100 | 86.1 µM (inactive) | – | > 100 µM (inactive) | 67.5 µM (inactive) | > 100 µM (inactive) | > 100 µM (inactive) | > 100 µM (inactive) | – | – |
